Test results: PubChem BioAssay (NCI)
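These data come from cells grown in 96-well plates and exposed to compound for 48 hours at five concentrations. TGI is the concentration that stops growth completely.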

Experiments:
Assay in all cases: NCI-60 cell line screen, 48 h
HCT-15 colon = tested on: HCT-15 colon
MALME-3M melanoma = tested on: MALME-3M melanoma
PC-3 prostate = tested on: PC-3 prostate
NCI-H460 lung = tested on: NCI-H460 lung
M14 melanoma = tested on: M14 melanoma
SF-295 CNS = tested on: SF-295 CNS
HL-60(TB) leukemia = tested on: HL-60(TB) leukemia
HOP-62 NSCLC = tested on: HOP-62 NSCLC
MDA-N = tested on: MDA-N
CAKI-1 renal = tested on: CAKI-1 renal
K-562 leukemia = tested on: K-562 leukemia
A549 NSCLC = tested on: A549 NSCLC
EKVX NSCLC = tested on: EKVX NSCLC
HCC-2998 colon = tested on: HCC-2998 colon
LOX IMVI melanoma = tested on: LOX IMVI melanoma
COLO 205 colon = tested on: COLO 205 colon
HT29 colon = tested on: HT29 colon
NCI-H522 lung = tested on: NCI-H522 lung
786-0 renal = tested on: 786-0 renal
KM12 colon = tested on: KM12 colon
ACHN renal = tested on: ACHN renal
SN12C renal = tested on: SN12C renal
SF-268 CNS = tested on: SF-268 CNS
SNB-75 CNS = tested on: SNB-75 CNS
T-47D breast = tested on: T-47D breast
UACC-257 melanoma = tested on: UACC-257 melanoma
SK-MEL-28 melanoma = tested on: SK-MEL-28 melanoma
SK-OV-3 ovarian = tested on: SK-OV-3 ovarian
HS 578T breast = tested on: HS 578T breast
OVCAR-5 ovarian = tested on: OVCAR-5 ovarian
MDA-MB-231 breast = tested on: MDA-MB-231 breast
BT-549 breast = tested on: BT-549 breast
UO-31 renal = tested on: UO-31 renal
SNB-19 CNS = tested on: SNB-19 CNS
OVCAR-4 ovarian = tested on: OVCAR-4 ovarian
SW-620 colon = tested on: SW-620 colon
TK-10 renal = tested on: TK-10 renal
OVCAR-8 ovarian = tested on: OVCAR-8 ovarian
SR leukemia = tested on: SR leukemia
NCI-H226 lung = tested on: NCI-H226 lung
UACC-62 melanoma = tested on: UACC-62 melanoma
DU-145 prostate = tested on: DU-145 prostate
HCT-116 colon = tested on: HCT-116 colon
RXF 393 renal = tested on: RXF 393 renal
SK-MEL-5 melanoma = tested on: SK-MEL-5 melanoma
MOLT-4 leukemia = tested on: MOLT-4 leukemia
U251 CNS = tested on: U251 CNS
HOP-92 NSCLC = tested on: HOP-92 NSCLC
CCRF-CEM leukemia = tested on: CCRF-CEM leukemia
OVCAR-3 ovarian = tested on: OVCAR-3 ovarian
MCF7 breast = tested on: MCF7 breast
SF-539 CNS = tested on: SF-539 CNS
MDA-MB-435 = tested on: MDA-MB-435
A498 renal = tested on: A498 renal
RPMI-8226 leukemia = tested on: RPMI-8226 leukemia
IGROV1 ovarian = tested on: IGROV1 ovarian
SK-MEL-2 melanoma = tested on: SK-MEL-2 melanoma
NCI-H23 lung = tested on: NCI-H23 lung
NCI/ADR-RES ovarian = tested on: NCI/ADR-RES ovarian

SMILES: CCn1c(SCC(=O)N/N=C/c2ccccc2)nc2ccccc2c1=O
- TGI (HCT-15 colon): > 100 µM
- TGI (MALME-3M melanoma): > 94.6 µM
- TGI (PC-3 prostate): > 46.4 µM
- TGI (NCI-H460 lung): 9.63 µM
- TGI (M14 melanoma): > 100 µM
- TGI (SF-295 CNS): 33.1 µM
- TGI (HL-60(TB) leukemia): > 100 µM
- TGI (HOP-62 NSCLC): > 78.3 µM
- TGI (MDA-N): > 29.3 µM
- TGI (CAKI-1 renal): 22.4 µM
- TGI (K-562 leukemia): > 100 µM
- TGI (A549 NSCLC): > 46.4 µM
- TGI (EKVX NSCLC): > 100 µM
- TGI (HCC-2998 colon): > 100 µM
- TGI (LOX IMVI melanoma): > 100 µM
- TGI (COLO 205 colon): > 100 µM
- TGI (HT29 colon): > 100 µM
- TGI (NCI-H522 lung): 27.5 µM
- TGI (786-0 renal): 41.7 µM
- TGI (KM12 colon): > 68.8 µM
- TGI (ACHN renal): > 100 µM
- TGI (SN12C renal): > 100 µM
- TGI (SF-268 CNS): > 70.2 µM
- TGI (SNB-75 CNS): 54.5 µM
- TGI (T-47D breast): > 100 µM
- TGI (UACC-257 melanoma): > 100 µM
- TGI (SK-MEL-28 melanoma): > 100 µM
- TGI (SK-OV-3 ovarian): 27.1 µM
- TGI (HS 578T breast): 49.3 µM
- TGI (OVCAR-5 ovarian): > 100 µM
- TGI (MDA-MB-231 breast): 80.8 µM
- TGI (BT-549 breast): > 100 µM
- TGI (UO-31 renal): > 100 µM
- TGI (SNB-19 CNS): 71.3 µM
- TGI (OVCAR-4 ovarian): 72.8 µM
- TGI (SW-620 colon): > 100 µM
- TGI (TK-10 renal): > 91 µM
- TGI (OVCAR-8 ovarian): > 82.1 µM
- TGI (SR leukemia): 5.34 µM
- TGI (NCI-H226 lung): 67.6 µM
- TGI (UACC-62 melanoma): 52.1 µM
- TGI (DU-145 prostate): > 100 µM
- TGI (HCT-116 colon): > 100 µM
- TGI (RXF 393 renal): 27.2 µM
- TGI (SK-MEL-5 melanoma): > 100 µM
- TGI (MOLT-4 leukemia): > 100 µM
- TGI (U251 CNS): > 70.9 µM
- TGI (HOP-92 NSCLC): > 79 µM
- TGI (CCRF-CEM leukemia): > 100 µM
- TGI (OVCAR-3 ovarian): > 100 µM
- TGI (MCF7 breast): > 46.4 µM
- TGI (SF-539 CNS): 38.4 µM
- TGI (MDA-MB-435): 17.6 µM
- TGI (A498 renal): 65 µM
- TGI (RPMI-8226 leukemia): > 100 µM
- TGI (IGROV1 ovarian): > 93.1 µM
- TGI (SK-MEL-2 melanoma): > 46.4 µM
- TGI (NCI-H23 lung): > 100 µM
- TGI (NCI/ADR-RES ovarian): > 100 µM
